Test results: PMC6017090, “Design, Synthesis and Biological Evaluation of Novel N-Pyridyl-Hydrazone Derivatives as Potential Monoamine Oxidase (MAO) Inhibitors” (Molecules : A Journal of Synthetic Chemistry and Natural …, 2018)

Experiments:
MAO-A enzyme = molecular target: T1, MAO-A enzyme (Homo sapiens, UniProt P21397); experiment: MAO activity assay (fluorometric, kynuramine substrate), MAO-A; type: biochemical
T1 construct: purchased Sigma-Aldrich
T1 sequence (P21397 1-527): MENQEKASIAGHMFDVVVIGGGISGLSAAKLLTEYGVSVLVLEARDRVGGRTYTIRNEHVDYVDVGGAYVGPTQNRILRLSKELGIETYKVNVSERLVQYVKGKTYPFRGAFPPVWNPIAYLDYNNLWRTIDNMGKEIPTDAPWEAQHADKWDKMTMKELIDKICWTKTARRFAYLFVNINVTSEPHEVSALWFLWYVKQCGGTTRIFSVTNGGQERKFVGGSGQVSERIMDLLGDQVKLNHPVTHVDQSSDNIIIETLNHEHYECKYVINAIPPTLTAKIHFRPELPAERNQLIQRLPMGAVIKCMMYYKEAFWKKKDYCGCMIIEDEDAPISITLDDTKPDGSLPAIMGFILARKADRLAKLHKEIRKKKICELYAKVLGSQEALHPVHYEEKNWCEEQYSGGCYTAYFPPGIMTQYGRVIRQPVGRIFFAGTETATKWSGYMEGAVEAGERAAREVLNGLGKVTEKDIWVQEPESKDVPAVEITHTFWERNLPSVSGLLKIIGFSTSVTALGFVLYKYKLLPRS
Procedure: The enzyme activity assay was performed in accordance with the procedure reported by Matsumoto et al. with slight modifications. All materials used in the enzymatic assays were purchased from Sigma-Aldrich Chemicals. All pipetting protocols in the assay were performed by the Biotek Precision robotic system (BioTek Instruments, Inc., Winooski, VT, USA). To prevent the effect of light MAO enzymes, the assay was performed in 96-well black plates. […] The enzyme stock solutions were further diluted with an assay buffer to obtain final concentrations of 0.006 mg/mL MAO-A and 0.015 mg/mL MAO-B. Kynuramine was dissolved in sterilized distilled water to obtain a 25 mM stock solution and then diluted with the assay buffer to obtain final concentrations of 40 μM for the MAO-A enzyme and 20 μM for the MAO-B enzyme. […] The addition of the diluted compounds was followed by the addition of either the MAO-A or MAO-B enzymes (50 μL/well). […] Fluorescence was read from top by using BioTek-Synergy H1 multimode microplate reader at the excitation/emission wavelengths of 310 and 380 nm.
(§1) The IC50 values (Table 2) were calculated from the plots of enzyme activity against concentrations, and the regression analyses were computed in GraphPad Prism Version 6 (GraphPad Software, Inc., La Jolla, CA, USA).

human recombinant MAO-B = molecular target: T2, human recombinant MAO-B (Homo sapiens, UniProt P27338); experiment: MAO activity assay (fluorometric, kynuramine substrate), MAO-B; type: biochemical; settings: 10^−3 M; ± S.D.
T2 construct: purchased Sigma-Aldrich
T2 sequence (P27338 1-520): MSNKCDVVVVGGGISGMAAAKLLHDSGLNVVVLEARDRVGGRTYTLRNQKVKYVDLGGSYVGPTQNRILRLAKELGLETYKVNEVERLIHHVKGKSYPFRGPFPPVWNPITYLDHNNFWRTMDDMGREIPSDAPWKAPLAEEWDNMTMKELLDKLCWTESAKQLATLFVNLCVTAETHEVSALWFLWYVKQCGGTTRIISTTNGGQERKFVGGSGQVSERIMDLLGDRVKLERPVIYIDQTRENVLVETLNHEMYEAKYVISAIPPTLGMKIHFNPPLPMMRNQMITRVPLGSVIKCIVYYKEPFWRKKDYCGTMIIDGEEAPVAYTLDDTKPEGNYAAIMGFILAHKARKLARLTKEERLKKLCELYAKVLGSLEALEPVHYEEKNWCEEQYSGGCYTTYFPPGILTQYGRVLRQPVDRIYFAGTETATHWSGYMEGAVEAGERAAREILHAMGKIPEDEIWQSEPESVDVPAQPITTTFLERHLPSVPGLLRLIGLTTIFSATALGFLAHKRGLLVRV
Procedure: The enzyme activity assay was performed in accordance with the procedure reported by Matsumoto et al. with slight modifications. All materials used in the enzymatic assays were purchased from Sigma-Aldrich Chemicals. All pipetting protocols in the assay were performed by the Biotek Precision robotic system (BioTek Instruments, Inc., Winooski, VT, USA). To prevent the effect of light MAO enzymes, the assay was performed in 96-well black plates. Phosphate buffer (0.1 M, pH = 7.4) was used for the preparation of 5 mg/mL stock solutions of the human recombinant MAO-A and MAO-B enzymes. The enzyme stock solutions were further diluted with an assay buffer to obtain final concentrations of 0.006 mg/mL MAO-A and 0.015 mg/mL MAO-B. Kynuramine was dissolved in sterilized distilled water to obtain a 25 mM stock solution and then diluted with the assay buffer to obtain final concentrations of 40 μM for the MAO-A enzyme and 20 μM for the MAO-B enzyme. […] The addition of the diluted compounds was followed by the addition of either the MAO-A or MAO-B enzymes (50 μL/well). […] Fluorescence was read from top by using BioTek-Synergy H1 multimode microplate reader at the excitation/emission wavelengths of 310 and 380 nm.
as §1

[1] = tested on: NIH/3T3 mouse embryonic fibroblast cells
Procedure: The MTT assay was performed as previously described [21, 22, 23, 24, 25, 26].

IC50 (MAO-A enzyme): 9.52 µM | MAO-A Inhibition % (MAO-A enzyme; 10^−3 M, ± S.D.): 72.07 ± 1.56% | MAO-A Inhibition % (MAO-A enzyme; 10^−4 M, ± S.D.): 56.90 ± 1.50% | MAO-A Inhibition % (MAO-A enzyme; 10^−5 M): 42.13 ± 1.22% | MAO-A Inhibition % (MAO-A enzyme; 10^−6 M): 35.11 ± 1.18% | MAO-A Inhibition % (MAO-A enzyme; 10^−7 M): 24.96 ± 0.83% | MAO-A Inhibition % (MAO-A enzyme; 10^−8 M): 18.02 ± 0.77% | MAO-A Inhibition % (MAO-A enzyme; 10^−9 M): 10.40 ± 0.29% | MAO-B Inhibition % (human recombinant MAO-B): 42.00 ± 1.21% | IC50 [1]: > 1000 µM
SMILES: CCOc1ccc([N+](=O)[O-])c(NN=Cc2ccccn2)n1 [Compound 2n, 6-Ethoxy-3-nitro-2[(2-(pyridine-2-yl)methylene)hydrazinyl]pyridine]
